The values that follow come from patent publication US20110178064A1, “SPIRO CONDENSED […] DERIVATIVES FOR USE AS ANTIBACTERIAL” (A[…]&D, priority 2007, published 2011).

The assay deals with Escherichia coli DNA gyrase A/B tetramer (Escherichia coli, UniProt P0AES4+P0AES6). As to the kind of experiment: DNA gyrase supercoiling activity fluorescence polarisation assay. Format: biochemical. The procedure:
The supercoiling reactions may be quenched by the addition of 10 microliters/well of 40 nM oligodeoxynucleotide probe in 3× triplex-forming buffer consisting of 150 mM NaCl, and 150 mM sodium acetate at pH 3.5. The oligodeoxynucleotide probe may be 5′-BODIPY-FL-labeled […]. After 60 minutes, the fluorescence anisotropy of the BODIPY-FL may be measured in a Tecan Ultra plate reader, using 485 nm excitation and 535 nm emission filters equipped with polarizers. The IC50 may be determined by nonliner regression using two control reactions. The first contains no test compound but 0.8% DMSO (100% activity) while the second control reaction contains 5 uM Ciprofloxacin and 0.8% DMSO (0% activity).
In general terms: Polarisation of emitted light reports the rotation of a fluorescent probe.

Each structure is given as a SMILES string.

Sequence of Escherichia coli DNA gyrase A/B tetramer (P0AES4 whole entry, one chain of several): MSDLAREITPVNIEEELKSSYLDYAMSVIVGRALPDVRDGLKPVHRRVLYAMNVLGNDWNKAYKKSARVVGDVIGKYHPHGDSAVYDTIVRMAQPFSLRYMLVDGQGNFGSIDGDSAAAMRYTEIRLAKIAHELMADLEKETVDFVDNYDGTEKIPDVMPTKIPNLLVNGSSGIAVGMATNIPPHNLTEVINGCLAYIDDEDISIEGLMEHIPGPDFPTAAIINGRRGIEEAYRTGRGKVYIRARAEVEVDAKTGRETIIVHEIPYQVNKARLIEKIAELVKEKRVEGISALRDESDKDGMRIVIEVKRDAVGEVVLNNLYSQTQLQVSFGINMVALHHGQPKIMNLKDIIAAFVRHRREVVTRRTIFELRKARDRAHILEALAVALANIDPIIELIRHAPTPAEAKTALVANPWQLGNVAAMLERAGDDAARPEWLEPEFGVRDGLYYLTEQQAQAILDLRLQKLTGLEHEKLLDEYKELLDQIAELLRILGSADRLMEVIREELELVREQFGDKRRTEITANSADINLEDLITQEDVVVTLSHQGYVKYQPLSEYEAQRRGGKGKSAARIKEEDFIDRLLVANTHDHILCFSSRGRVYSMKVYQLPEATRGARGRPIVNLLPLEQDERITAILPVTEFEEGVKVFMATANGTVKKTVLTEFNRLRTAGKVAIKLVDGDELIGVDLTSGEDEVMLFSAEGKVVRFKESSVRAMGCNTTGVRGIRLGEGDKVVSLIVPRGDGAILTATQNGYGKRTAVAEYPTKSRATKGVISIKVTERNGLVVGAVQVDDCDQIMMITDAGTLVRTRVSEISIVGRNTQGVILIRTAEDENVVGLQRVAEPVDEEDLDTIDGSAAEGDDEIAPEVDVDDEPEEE

For orientation: IC50 means the concentration needed to halve the response being measured. For `C[C@@H]1CN2c3ncc(-c4cc5ccccc5s4)cc3CC3(C(=O)NC(=O)NC3=O)[C@H]2[C@H](C)O1` (relative stereo) [Example 28, (6aS,7S,9R)-rel-3-(1-Benzothiophen-2-yl)-7,9-dimethyl-6a,7,9,10-tetrahydro-2′H,5H-spiro[1,4-oxazino[4,3-a][1,8]naphthyridine-6,5′-pyrimidine]-2′,4′,6′(1′H,3′H)-trione], it took 2 µM to reach half-maximal inhibition (IC50). `Cc1ccc(-c2cnc3c(c2)CC2(C(=O)NC(=O)NC2=O)[C@H]2[C@H](C)O[C@H](C)CN32)s1` (relative stereo) [Example 29, (6aS,7S,9R)-rel-7,9-Dimethyl-3-(5-methylthiophen-2-yl)-6a,7,9,10-tetrahydro-2′H,5H-spiro[1,4oxazino[4,3-a][1,8]naphthyridine-6,5′-pyrimidine]-2′,4′,6′(1′H,3′H)-trione] returned an IC50 of 9 µM. As for `Cc1ccsc1-c1cnc2c(c1)CC1(C(=O)NC(=O)NC1=O)[C@H]1[C@H](C)O[C@H](C)CN21` (relative stereo) [Example 30, (6aS,7S,9R)-rel-7,9-Dimethyl-3-(3-methylthiophen-2-yl)-6a,7,9,10-tetrahydro-2′H,5H-spiro[1,4-oxazino[4,3-a][1,8]naphthyridine-6,5′-pyrimidine]-2′,4′,6′(1′H,3′H)-trione], the figure is 12 µM; as for `C[C@@H]1CN2c3ncc(-c4ccc(-c5nnn[nH]5)s4)cc3CC3(C(=O)NC(=O)NC3=O)[C@H]2[C@H](C)O1` (relative stereo) [Example 31, (6aS,7S,9R)-rel-7,9-Dimethyl-3-[5-(1H-tetrazol-5-yl)thiophen-2-yl]-6a,7,9,10-tetrahydro-2′H,5H-spiro[1,4-oxazino[4,3-a][1,8]naphthyridine-6,5′-pyrimidine]-2′,4′,6′(1′H,3′H)-trione], 6 µM; as for `C[C@@H]1CN2c3ncc(-c4cn(C)cn4)cc3CC3(C(=O)NC(=O)NC3=O)[C@H]2[C@H](C)O1` (relative stereo) [Example 33, (6aS,7S,9R)-rel-7,9-Dimethyl-3-(1-methyl-1H-imidazol-4-yl)-6a,7,9,10-tetrahydro-2′H,5H-spiro[1,4-oxazino[4,3-a][1,8]naphthyridine-6,5′-pyrimidine]-2′,4′,6′(1′H,3′H)-trione], 48 µM. As for `C[C@@H]1CN2c3ncc(-c4ncc[nH]4)cc3CC3(C(=O)NC(=O)NC3=O)[C@H]2[C@H](C)O1` (relative stereo) [Example 35, (6aS,7S,9R)-rel-3-(1H-Imidazol-2-yl)-7,9-dimethyl-6a,7,9,10-tetrahydro-2′H,5H-spiro[1,4-oxazino[4,3-a][1,8]naphthyridine-6,5′-pyrimidine]-2′,4′,6′(1′H,3′H)-trione], the figure is above 40 µM; as for `C[C@@H]1CN2c3ncc(-c4ccc(-c5ccn[nH]5)s4)cc3CC3(C(=O)NC(=O)NC3=O)[C@H]2[C@H](C)O1` (relative stereo) [Example 36, (6aS,7S,9R)-rel-7,9-Dimethyl-3-[5-(1H-pyrazol-5-yl)thiophen-2-yl]-6a,7,9,10-tetrahydro-2′H,5H-spiro[1,4-oxazino[4,3-a][1,8]naphthyridine-6,5′-pyrimidine]-2′,4′,6′(1′H,3′H)-trione], 2 µM; as for `C[C@@H]1CN2c3ncc(-c4c[nH]cn4)cc3CC3(C(=O)NC(=O)NC3=O)[C@H]2[C@H](C)O1` (relative stereo) [Example 37, (6aS,7S,9R)-rel-3-(1H-Imidazol-4-yl)-7,9-dimethyl-6a,7,9,10-tetrahydro-2′H,5H-spiro[1,4-oxazino[4,3-a][1,8]naphthyridine-6,5′-pyrimidine]-2′,4′,6′(1′H,3′H)-trione], 12 µM. Then `C[C@@H]1CN2c3ncc(-c4ccccn4)cc3CC3(C(=O)NC(=O)NC3=O)[C@H]2[C@H](C)O1` (relative stereo) [Example 38, (6aS,7S,9R)-rel-7,9-Dimethyl-3-(pyridin-2-yl)-6a,7,9,10-tetrahydro-2′H,5H-spiro[1,4-oxazino[4,3-a][1,8]naphthyridine-6,5′-pyrimidine]-2′,4′,6′(1′H,3′H)-trione], with 12 µM; and `C[C@@H]1CN2c3ncc(-c4nc5ccccc5[nH]4)cc3CC3(C(=O)NC(=O)NC3=O)[C@H]2[C@H](C)O1` (relative stereo) [Example 40, (6aS,7S,9R)-rel-3-(1H-Benzimidazol-2-yl)-7,9-dimethyl-6a,7,9,10-tetrahydro-2′H,5H-spiro[1,4-oxazino[4,3-a][1,8]naphthyridine-6,5′-pyrimidine]-2′,4′,6′(1′H,3′H)-trione], with 6 µM; and `C[C@@H]1CN2c3ncc(-c4ccc(Cl)cn4)cc3CC3(C(=O)NC(=O)NC3=O)[C@H]2[C@H](C)O1` (relative stereo) [Example 42, (6aS,7S,9R)-rel-3-(5-chloropyridin-2-yl)-7,9-dimethyl-6a,7,9,10-tetrahydro-2′H,5H-spiro[1,4-oxazino[4,3-a][1,8]naphthyridine-6,5′-pyrimidine]-2′,4′,6′(1′H,3′H)-trione], with 4 µM. As for `COc1ccncc1-c1cnc2c(c1)CC1(C(=O)NC(=O)NC1=O)[C@H]1[C@H](C)O[C@H](C)CN21` (relative stereo) [Example 43, (6aS,7S,9R)-rel-3-(4-Methoxypyridin-3-yl)-7,9-dimethyl-6a,7,9,10-tetrahydro-2′H,5H-spiro[1,4-oxazino[4,3-a][1,8]naphthyridine-6,5′-pyrimidine]-2′,4′,6′(1′H,3′H)-trione], the IC50 turned out to be 12 µM. Then `C[C@@H]1CN2c3ncc(-c4cncnc4)cc3CC3(C(=O)NC(=O)NC3=O)[C@H]2[C@H](C)O1` (relative stereo) [Example 45, (6aS,7S,9R)-rel-7,9-Dimethyl-3-(pyrimidin-5-yl)-6a,7,9,10-tetrahydro-2′H,5H-spiro[1,4-oxazino[4,3-a][1,8]naphthyridine-6,5′-pyrimidine]-2′,4′,6′(1′H,3′H)-trione], with 30 µM; and `C[C@@H]1CN2c3ncc(-c4cccc5cccnc45)cc3CC3(C(=O)NC(=O)NC3=O)[C@H]2[C@H](C)O1` (relative stereo) [Example 47, (6aS,7S,9R)-rel-7,9-Dimethyl-3-(quinolin-8-yl)-6a,7,9,10-tetrahydro-2′H,5H-spiro[1,4-oxazino[4,3-a][1,8]naphthyridine-6,5′-pyrimidine]-2′,4′,6′(1′H,3′H)-trione], with above 83 µM.

Regarding `C[C@@H]1CN2c3ncc(-c4ccoc4)cc3CC3(C(=O)NC(=O)NC3=O)[C@H]2[C@H](C)O1` (relative stereo) [Example 48, (6aS,7S,9R)-rel-3-(Furan-3-yl)-7,9-dimethyl-6a,7,9,10-tetrahydro-2′H,5H-spiro[1,4-oxazino[4,3-a][1,8]naphthyridine-6,5′-pyrimidine]-2′,4′,6′(1′H,3′H)-trione], half-maximal inhibition (IC50) required 17 µM. `Cc1noc(C)c1-c1cnc2c(c1)CC1(C(=O)NC(=O)NC1=O)[C@H]1[C@H](C)O[C@H](C)CN21` (relative stereo) [Example 49, (6aS,7S,9R)-rel-3-(3,5-Dimethylisoxazol-4-yl)-7,9-dimethyl-6a,7,9,10-tetrahydro-2′H,5H-spiro[1,4-oxazino[4,3-a][1,8]naphthyridine-6,5′-pyrimidine]-2′,4′,6′(1′H,3′H)-trione]: the IC50 is 30 µM. This IC50 is about 1.8-fold higher than that of the molecule before. As for `C[C@@H]1CN2c3ncc(-c4ccncc4)cc3CC3(C(=O)NC(=O)NC3=O)[C@H]2[C@H](C)O1` (relative stereo) [Example 50, (6aS,7S,9R)-rel-7,9-Dimethyl-3-(pyridin-4-yl)-6a,7,9,10-tetrahydro-2′H,5H-spiro[1,4-oxazino[4,3-a][1,8]naphthyridine-6,5′-pyrimidine]-2′,4′,6′(1′H,3′H)-trione], the figure is 8 µM. As for `C[C@@H]1CN2c3ncc(-c4cnccn4)cc3CC3(C(=O)NC(=O)NC3=O)[C@H]2[C@H](C)O1` (relative stereo) [Example 52, (6aS,7S,9R)-rel-7,9-Dimethyl-3-(pyrazin-2-yl)-6a,7,9,10-tetrahydro-2′H,5H-spiro[1,4-oxazino[4,3-a][1,8]naphthyridine-6,5′-pyrimidine]-2′,4′,6′(1′H,3′H)-trione], the figure is 5 µM; as for `C[C@@H]1CN2c3cnc(-c4ccccn4)cc3CC3(C(=O)NC(=O)NC3=O)[C@H]2[C@H](C)O1` (relative stereo) [Example 55, (6aS,7S,9R)-rel-7,9-Dimethyl-3-(pyridin-2-yl)-6a,7,9,10-tetrahydro-2′H,5H-spiro[1,4-oxazino[4,3-a][1,7]naphthyridine-6,5′-pyrimidine]-2′,4′,6′(1′H,3′H)-trione], 21 µM; as for `C[C@@H]1CN2c3cnc(-c4ccnn4C)cc3CC3(C(=O)NC(=O)NC3=O)[C@H]2[C@H](C)O1` (relative stereo) [Example 57, (6aS,7S,9R)-rel-7,9-dimethyl-3-(1-methyl-1H-pyrazol-5-yl)-6a,7,9,10-tetrahydro-2′H,5H-spiro[1,4-oxazino[4,3-a][1,7]naphthyridine-6,5′-pyrimidine]-2′,4′,6′(1′H,3′H)-trione], 9 µM. As for `C[C@@H]1CN2c3cnc(-c4cn[nH]c4)cc3CC3(C(=O)NC(=O)NC3=O)[C@H]2[C@H](C)O1` (relative stereo) [Example 59, (6aS,7S,9R)-rel-7,9-Dimethyl-3-(1H-pyrazol-4-yl)-6a,7,9,10-tetrahydro-2′H,5H-spiro[1,4-oxazino[4,3-a][1,7]naphthyridine-6,5′-pyrimidine]-2′,4′,6′(1′H,3′H)-trione], the figure is 50 µM. Take `C[C@@H]1CN2c3cnc(-c4cncnc4)cc3CC3(C(=O)NC(=O)NC3=O)[C@H]2[C@H](C)O1` (relative stereo) [Example 60, (6aS,7S,9R)-rel-7,9-Dimethyl-3-(pyrimidin-5-yl)-6a,7,9,10-tetrahydro-2′H,5H-spiro[1,4-oxazino[4,3-a][1,7]naphthyridine-6,5′-pyrimidine]-2′,4′,6′(1′H,3′H)-trione]: the IC50 was 6 µM.
